# Target: SSTR4 (Homo sapiens, UniProt P31391)
# Test: cell-based
# 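Also: CHO-K1 cells overexpressing SSTR4, reduction of forskolin-driven cAMP after 30 min compound exposure at room temperature, cAMP read by HTRF LANCE Ultra kit.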
# SSTR4, sequence (P31391 whole entry): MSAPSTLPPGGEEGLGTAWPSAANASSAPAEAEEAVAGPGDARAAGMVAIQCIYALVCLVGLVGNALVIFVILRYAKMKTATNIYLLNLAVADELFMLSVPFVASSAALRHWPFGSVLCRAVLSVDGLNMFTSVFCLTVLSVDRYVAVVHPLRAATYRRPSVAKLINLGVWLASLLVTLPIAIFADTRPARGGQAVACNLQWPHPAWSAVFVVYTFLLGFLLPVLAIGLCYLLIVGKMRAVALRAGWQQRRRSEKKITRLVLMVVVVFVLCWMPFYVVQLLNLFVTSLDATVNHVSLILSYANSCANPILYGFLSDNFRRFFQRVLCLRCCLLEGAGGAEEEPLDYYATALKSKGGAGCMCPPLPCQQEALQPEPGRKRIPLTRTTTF
row,SMILES,EC50
1,"Cc1nnc([C@H](C)c2ccccc2)c(N[C@H]2CCN(C)C2)n1 (single isomer, unassigned) [Example 151]",316 nM
2,"c1ccc(Cc2nc3ccccc3nc2NCCN2CCCC2)cc1 [Example 1, 3-benzyl-N-(2-(pyrrolidin-1-yl)ethyl)quinoxalin-2-amine]",166 nM
3,"Cc1cccc(Cc2cc3cccc(C)c3nc2NCCN2CCCC2)c1 [Example 7, 8-methyl-3-(3-methylbenzyl)-N-(2-(pyrrolidin-1-yl)ethyl)quinolin-2-amine]",661 nM
4,"C[C@H](c1ccc(F)cc1)c1nc(C(=O)NC2CCC2)cnc1NCCN1CCCC1 [Example 9, (R)-N-cyclobutyl-6-(1-(4-fluorophenyl)ethyl)-5-((2-(pyrrolidin-1-yl)ethyl)amino)pyrazine-2-carboxamide]",81.3 nM
5,"Cc1nc(Cc2ccc(F)cc2)c(NC2CCN(C)CC2)nc1C [Example 79, 3-(4-fluorobenzyl)-5,6-dimethyl-N-(1-methylpiperidin-4-yl)pyrazin-2-amine]",229 nM
6,"Cc1nc(Cc2ccc(F)cc2)c(N[C@@H]2CCN(C)C2)nc1C [Example 81, (R)-3-(4-fluorobenzyl)-5,6-dimethyl-N-(1-methylpyrrolidin-3-yl)pyrazin-2-amine]",240 nM
7,"Cc1cccc(Cc2nc(C)c(C)nc2NC2CCN(C)CC2)c1 [Example 82, 5,6-dimethyl-3-(3-methylbenzyl)-N-(1-methylpiperidin-4-yl)pyrazin-2-amine]",107 nM
8,"Cc1cnc(NCCN2CCCC2)c(C(C)c2ccc(F)cc2)n1 (stereo not drawn) [Example 86, 3-(1-(4-fluorophenyl)ethyl)-5-methyl-N-(2-(pyrrolidin-1-yl)ethyl)pyrazin-2-amine]",79.4 nM
9,"CC1CN(C)CCC1Nc1nc(C(F)(F)F)cnc1Cc1ccc(F)cc1 (stereo not drawn) [Example 92, N-(1,3-dimethylpiperidin-4-yl)-3-(4-fluorobenzyl)-6-(trifluoromethyl)pyrazin-2-amine]",115 nM
10,"Fc1ccc(Cc2ncc(C(F)(F)F)nc2NCCN2CCCC2)cc1 [Example 93, 3-(4-fluorobenzyl)-N-(2-(pyrrolidin-1-yl)ethyl)-6-(trifluoromethyl)pyrazin-2-amine]",77.6 nM

# Now those with a lower EC50, led by results:
row,EC50,SMILES
1,13.8 nM,Cc1nc(NCCN2CCCC2)c(C(C)c2ccc(F)cc2)nc1C(=O)O (stereo not drawn) [Example 55]
2,7.59 nM,"CO[C@H]1C[C@@H](NC(=O)c2nc(C(C)c3ccc(F)cc3)c(NCCN3CCCC3)nc2C)C1 (stereo partly drawn) [Example 56, 6-(1-(4-fluorophenyl)ethyl)-N-(cis-3-methoxycyclobutyl)-3-methyl-5-((2-(pyrrolidin-1-yl)ethyl)amino)pyrazine-2-carboxamide]"
3,40.7 nM,"Cc1nc(NCCN2CCCC2)c(C(C)c2ccc(F)cc2)nc1C(=O)NC1CCCC1 (stereo not drawn) [Example 57, N-cyclopentyl-6-(1-(4-fluorophenyl)ethyl)-3-methyl-5-((2-(pyrrolidin-1-yl)ethyl)amino)pyrazine-2-carboxamide]"
4,7.76 nM,"Cc1nc(NCCN2CCCC2)c(C(C)c2ccc(F)cc2)nc1C(=O)N[C@H]1C[C@H](F)C1 (stereo partly drawn) [Example 76, N-(trans-3-fluorocyclobutyl)-6-(1-(4-fluorophenyl)ethyl)-3-methyl-5-((2-(pyrrolidin-1-yl)ethyl)amino)pyrazine-2-carboxamide]"
5,19.1 nM,"Cc1nc(Cc2ccc(F)cc2)c(NCCN2CCCC2)nc1C [Example 80, 3-(4-fluorobenzyl)-5,6-dimethyl-N-(2-(pyrrolidin-1-yl)ethyl)pyrazin-2-amine]"
6,7.76 nM,"Cc1cccc(Cc2nc(C)c(C)nc2NCCN2CCCC2)c1 [Example 83, 5,6-dimethyl-3-(3-methylbenzyl)-N-(2-(pyrrolidin-1-yl)ethyl)pyrazin-2-amine]"
7,45.7 nM,"Cc1cccc(Cc2nc(C)c(C)nc2N[C@@H]2CCN(C)C2)c1 [Example 84, (R)-5,6-dimethyl-3-(3-methylbenzyl)-N-(1-methylpyrrolidin-3-yl)pyrazin-2-amine]"
8,15.8 nM,"CCc1cnc(Cc2ccccc2)c(NCCN2CCC2)n1 [Example 89, N-(2-(azetidin-1-yl)ethyl)-3-benzyl-6-ethylpyrazin-2-amine]"
